Experimental data from patent publication US9987242B2, “Treatment of Levodopa-induced Dyskinesias” (NORTHWESTERN UNIVERSITY, priority 2015, dated 2018).
“Also recorded” adds a separate entry of the source.

How the values were obtained:
Format in all cases: cell-based, mice
[1] = system: dSPN glutamatergic synapses; test: Spike-timing-dependent LTD induction (post-pre pairing) in dSPNs, ex vivo corticostriatal slices, perforated-patch or whole-cell recording
From the text: Male C57Bl/6 and FVB mice expressing tdTomato or eGFP under control of either the Drd1 or Drd2 receptor regulatory elements were used. All the mice used for the study were hemizygous for these transgenes. For some experiments, D1-tdTomato BAC mice were crossed with a transgenic line expressing Cre recombinase under control of the ChAT promoter. All mice were 8-10 weeks of age before stereotaxic surgery. Animal use procedures were reviewed and approved by the Northwestern Institutional Animal Care and Use Committee.
Slices were then transferred to a holding chamber containing aCSF. After an incubation period at 34° C. for 30 min, the slices were then kept in the holding chamber at the room temperature for another 30 min before use.
Individual slices were transferred to a recording chamber and were continuously perfused (2-3 ml min^−1) with aCSF for the duration of the experiment. Experiments were performed in the dorsolateral striatum at elevated temperature (30-31° C.).
All the recordings were made using a MultiClamp 700 A amplifier, and signals were filtered at 2 kHz and digitized at 10 kHz. Data were excluded when the series resistance changed >20% over the time course of the experiment. […] Capacitance current was continuously monitored during perforation by applying a 5-10 mV pulse from a holding potential of −70 mV. The amplifier bridge circuit was adjusted to compensate for series resistance and continuously monitored during recordings. Electrode capacitance was also compensated. Data were excluded when the input resistance (Ri) changed >20% over the time course of the experiment.
Data analysis was conducted with Igor Pro 6 (Wavemetrics, Lake Oswego, Oreg.) and Clampfit 9 (Molecular Devices). EPSP amplitude was calculated from 50-60 sweeps immediately before the start of induction and 20-30 min after the end of induction. The change in EPSP amplitude was calculated by averaging EPSP values after the induction and normalized to the average baseline EPSP amplitude. Compiled data were expressed as mean±s.e.m. Statistical tests were performed using Excel (Microsoft, Redmond, Wash.) and SigmaStat (Systat, San Jose, Calif.). Non-parametric Mann-Whitney or Wilcoxon tests were used to assess the experiment results, using a probability threshold of 0.05.
To determine if M4Rs were modulating synaptic plasticity, a spike-timing-dependent plasticity (STDP) paradigm was used. […] Once identified, neurons were monitored and controlled with perforated-patch recording to preserve intracellular signaling mechanisms and to allow stable, long-term monitoring of synaptic strength (FIG. 1A).
Synaptic plasticity was induced by pairing local stimulation of glutamatergic afferent fibers with postsynaptic spikes evoked by short bursts of intracellular current injection that were repeated at 5 Hz (FIGS. 1B, 4A).

[2] = system: NMDAR-mediated Ca2+ transients in dSPN spines; test: NMDAR-mediated Ca2+ transients in dSPN spines, two-photon glutamate uncaging and Fluo-5F imaging
From the text: dSPNs were identified by somatic tdTomato expression using two-photon excited fluorescence that was induced and detected using a Prairie Ultima laser scanning microscope system (Prairie Technologies). Fluorescent and bright-field images were viewed in register using a Dodt contrast detector system. Cells were patched using video microscopy with a Hitachi CCD camera and an Olympus 60×/1.0 NA lens. Green (Fluo 5F) and red (tdTomato; Alexa 568) signals were acquired using 810 nm excitation (Verdi/Mira laser). Following patch rupture the internal solution was allowed to equilibrate for 10-15 minutes before imaging. High magnification z-series of dendrite regions 50-100 μm from the soma were acquired with 0.072 μm2 pixels with 4 μs dwell time and 0.3 μm z-steps. […]
dSPNs were loaded with 25 μM Alexa 568 and 300 μM Fluo 5F via the internal recording solution, containing (in mM): 120 CsMeSO3, 5 NaCl, 10 TEA-Cl, 10 HEPES, 5 QX-314, 4 ATP-Mg and 0.3 GTP-Na. […] Changes in Fluo 5F fluorescence were averaged from 3 trials and measured as ΔF/Fo.
Glutamate uncaging was achieved using a Verdi/Mira (Coherent Laser Group, Santa Clara, Calif.) (Plotkin et al., 2014). […] Photolysis power was tuned via a third Pockels cell modulator (Con Optics, Danbury, Conn.) to achieve uEPSCs≤5 pA. uEPSC amplitudes were measured from averaged (3-5 repetitions) traces. […]

[3] = system: dSPN glutamatergic synapses; test: Spike-timing-dependent LTP induction (pre-post pairing) in dSPNs, ex vivo slices; conditions: VU10010 5 μM
[4] = system: dSPN glutamatergic synapses; test: Depotentiation of established LTP by low-frequency stimulation (2 Hz, 10 min) in dSPNs; conditions: VU10010 5 μM

Cc1cc(C)c2c(N)c(C(=O)NCc3ccc(Cl)cc3)sc2n1 [VU10010]
LTD induction in dSPNs (EPSP amplitude) ([1]; VU10010 5 μM, no D1R antagonist, 20 repetitions of pairing): did not lead to LTD induction | LTD induction in dSPNs (EPSP amplitude) ([1]; VU10010 5 μM, no D1R antagonist, 60 repetitions of pairing): LTD induction was robust; also recorded: LTD was induced | LTD induction in dSPNs (EPSP amplitude) ([1]; physostigmine 10 μM co-applied with VU10010 5 μM, 20 repetitions): LTD was induced | decrease of NMDAR-mediated Ca2+ transients ([2]; SKF81297 3 μM, then muscarine and the M4R PAM co-applied, n=12): ~40% | NMDAR-mediated Ca2+ transients ([2]; VU10010 5 μM, dSPNs from LID mice): reduced NMDAR-mediated Ca2+ transients | STDP LTP induction in dSPNs ([3]; dyskinetic (LID) mice): blocked the induction of STDP LTP; also recorded: LTP was disrupted | STDP LTP induction in dSPNs ([3]; naive mice): disrupted STDP LTP induction; also recorded: LTP induction was also blocked | depotentiation by LFS in dSPNs ([4]; dyskinetic (LID) mice, no D1R antagonist): restored depotentiation | depotentiation by LFS in dSPNs ([4]; naive mice): Depotentiation also was achieved; also recorded: promoted the reversal of established LTP
